Experimental data from patent publication US20250034201A1, “PRODRUGS OF GANAXOLONE” (priority 2022, published 2025).
Converted amounts (≈) assume the structure as drawn. Where two headings read alike, the source gives them in different places.

Columns and labels:
[1] = Dog liver microsomal stability; type: in vitro ADME
Method: (§1) For several compounds only human liver microsomal stability was tested. […] The microsomal assays were carried out with and without the addition of NADPH at a final concentration of 1 mM. For negative control samples, NADPH reagent was not added. […] Note that compounds undergo only Phase I metabolism in liver microsomes.
(§2) CLint=the intrinsic hepatic clearance (uL/min/mg), where CLint is equal to 0.693/(t1/2×Cmp)
Certain compounds were also tested in mice and dog liver microsome assays according to the protocol outlined above. […].

[2] = Stability in simulated intestinal fluid (SIF); type: in vitro ADME; settings: SIF with pancreatin pH 6.8, 37° C.
Method: (§3) The stability of exemplary compounds in simulated gastric fluid (SGF) and simulated intestinal fluid (SIF) was tested according to the following protocol.

[3] = Dog plasma stability; type: in vitro ADME; settings: dog plasma
Method: For each test compound, samples at a final concentration of 2 μg/mL were prepared in blank plasma of selected species. All samples were incubated at 37° C. on a 150-RPM orbital shaker, and an aliquot was removed at pre-determined time points (0, 15, 30, 60, and 120 minutes). Samples were precipitated with three volumes of acetonitrile containing propranolol as internal standard, and centrifuged for 10 min at 2000 g before LC/MS/MS analysis of the supernatant solutions.

[4] = Stability in simulated gastric fluid (SGF); type: in vitro ADME; settings: SGF with pepsin pH 1.2, 37° C.
Method: as §3

[5] = Measured solubility in buffer, LC-MS/MS; type: physicochemical; settings: aqueous buffer, thermodynamic from solid
Method: […] The mixture was vortexed and a magnetic stirring bar was subsequently added to the vial. The vial was placed on a magnetic stirrer with constant stirring for 16-24 hours at room temperature. The pH of the top layer solution was measured. Subsequently, 200 μL of the top layer solution was placed in a 1.5 mL microcentrifuge tube and centrifuged at 18,000 g for 10 min at room temperature. A 10 μL aliquot of supernatant was added to 990 μL of methanol:water (1/:1, v/v) and vortexed. Then, one volume of acetonitrile containing internal standard was added to one volume of the above 100-fold diluted solution and the resulting solution was vortexed and placed in 96-well plate for LC-MS/MS analysis. […] LC-MS-MS analysis was performed utilizing multiple reaction monitoring for detection of characteristic ions for each test compound, additional related analytes and internal standard.

[6] = Pharmacokinetic study with Compound 218 (IV 5 mg/kg, PO 25 mg/kg); type: in vivo; settings: dog, plasma, fasted male beagle dogs; for AUC(0-t): read-out: Compound 218 PK AUClast; for MRT inf: read-out: Compound 218 PK MRTInf; for half-life: read-out: Compound 218 PK t1/2 (converted); for Vd: male, beagle, 5 mg/kg
Method: […]; n=3) and oral (PO) administration (25 mg/kg; n=3) in fasted male beagle dogs.

[7] = Rat liver microsomal stability; type: in vitro ADME
Method: as §1, §2

[8] = in vitro
[9] = in vitro; type: in vitro ADME, human; settings: compound 0.5 μM
Method: as §1

[10] = analyte Compound 218, IV 5 mg/kg Compound 218, mean
[11] = analyte Compound 218, oral 25 mg/kg Compound 218, mean

## CC(=O)[C@H]1CC[C@H]2[C@@H]3CC[C@H]4C[C@](C)(OC(=O)COC(=O)C(C)(C)N)CC[C@]4(C)[C@H]3CC[C@]12C [Compound 218]
[1]; dog liver microsomes 0.5 mg/mL, compound 0.5 μM, read-out: Dog Liver Microsomal Stability CLint (uL/min/mg liver)
  microsomal CLint: 69 µL/min/mg
[1]; dog liver microsomes 0.5 mg/mL, compound 0.5 μM, read-out: Dog Liver Microsomal Stability t1/2
  half-life: 0.335 h
[1]; dog liver microsomes, no NADPH, 1 h
  Dog Liver Microsomal Stability no NADPH, % remain 1 h: 44.4%
[2]; 60 min
  SIF (% remain, 60 min): 95%
[2]; simulated gi fluid, 2 μg/mL, read-out: SIF t1/2
  half-life: 22.7 h
[3]
  Observations: stability / GNX production in dog plasma: No GNX produced
[3]; 2 μg/mL, 37° C.
  Dog plasma t90: 783 min
[3]; 2 μg/mL, 37° C., read-out: Dog plasma Half life (t1/2)
  half-life: 86.6 h
[4]; 60 min
  SGF (% remain, 60 min): 97%
[4]; simulated gi fluid, 2 μg/mL, read-out: SGF t1/2
  half-life: 35 h
[5]; pH 7.4, 50 mM phosphate buffer, 16-24 hours, room temperature, read-out: Solubility pH 7.4
  solubility: 152 µg/mL (≈ 0.32 mM)
[5]; buffer, pH 2.0, room temperature, read-out: Solubility pH 2.0
  solubility: 16900 µg/mL (≈ 35.5 mM)
[6]; analyte Compound 218, IV 5 mg/kg Compound 218, mean, read-out: Compound 218 PK AUCinf
  AUC(0-inf): 2200 ng·h/mL
[6]; [10]
  AUC(0-t): 2130 ng·h/mL
  MRT inf: 5.03 h
  half-life: 17.7 h
[6]; analyte Compound 218, IV 5 mg/kg Compound 218, mean, read-out: Compound 218 PK C0
  C0: 2750 ng/mL
[6]; analyte Compound 218, IV 5 mg/kg Compound 218, mean, read-out: Compound 218 PK CL
  clearance: 37.9 mL/min/kg
[6]; analyte Compound 218, oral 25 mg/kg Compound 218, mean, read-out: Compound 218 PK AUCInf
  AUC(0-inf): 415 ng·h/mL
[6]; [11]
  AUC(0-t): 359 ng·h/mL
  MRT inf: 6.38 h
  half-life: 6.13 h
[6]; analyte Compound 218, oral 25 mg/kg Compound 218, mean, read-out: Compound 218 PK Cmax
  Cmax: 89.8 ng/mL
[6]; analyte Compound 218, oral 25 mg/kg Compound 218, mean, read-out: Compound 218 PK Tmax
  Tmax: 1.17 h
[6]; analyte Compound 218, oral 25 mg/kg vs IV 5 mg/kg Compound 218, mean, read-out: Compound 218 PK F (%)
  bioavailability: 3.76%
[6]; intravenous, Compound 218 administered, read-out: volume of distribution (Vd) (dose/Co)
  Vd: 1.82 L/kg
[6]; iv, analyte Compound 218, IV 5 mg/kg Compound 218, mean, read-out: Compound 218 PK Vss
  Vd: 11.4 L/kg
[6]; iv, analyte Compound 218, IV 5 mg/kg Compound 218, mean, read-out: Compound 218 PK Vz
  Vd: 57.5 L/kg
[7]; rat liver microsomes
  Comments: production of GNX (ganaxolone) in rat liver microsomes: In rat no GNX produced;
[7]; rat liver microsomes 0.5 mg/mL, with NADPH, compound 0.5 μM, 37° C., read-out: Rat Liver Microsomal Stability t1/2
  half-life: 0.94 h
[7]; rat liver microsomes 0.5 mg/mL, with NADPH, compound 0.5 μM, read-out: Rat Liver Microsomal Stability CLint (uL/min/mg liver)
  microsomal CLint: 26 µL/min/mg
[7]; rat liver microsomes, no NADPH, 1 h, compound 0.5 μM
  Rat Liver Microsomal Stability no NADPH, % remain 1 h: 83%
[8]; human plasma, 2 μg/mL, 37° C.
  Human plasma t90: 8.6 min
[8]; human, plasma
  Observations: stability / GNX production in human plasma: No GNX produced
  half-life: 0.948 h
[8]; rat plasma, 2 μg/mL, 37° C.
  Rat plasma t90: 8.5 min
[8]; rat, plasma
  Observations: stability / GNX production in rat plasma: GNX produced in rat
  half-life: 0.938 h
[9]; human liver microsomes 0.5 mg/mL, with NADPH, 37° C., read-out: Human Liver Microsomal Stability t1/2
  half-life: 0.24 h
[9]; human liver microsomes 0.5 mg/mL, with NADPH, read-out: Human Liver Microsomal Stability CLint (uL/min/mg liver) (converted)
  microsomal CLint: 95.3 µL/min/mg
[9]; human liver microsomes, no NADPH, 1 h
  Human Liver Microsomal Stability no NADPH, % remain 1 h: 10.0%
